Assay results taken from patent US12428416B2 (California Institute of Technology, priority 2018, dated 2025).

Assays:
[1] = tested on: drug-sensitive cell lines of Table 4; test: Cell line growth retardation assay, average over sensitive cohort; format: cell-based, Human; conditions: Homo sapiens, 144 h; geometric mean of IC50s over sensitive cohort (Table 4); 6 days growth; read-out: AvgSens IC50
Protocol: (§1) Cell Line Growth Retardation Assay
(§2) Cells were seeded at densities of 1,000-5,000 cells per well in 48-well tissue culture plates. After a 24 h rest period, cells were treated with compound at 10 μM, 2 μM, 0.4 μM, 0.08 μM, 0.016 μM, and 0.0032 μM. A group of cells were treated with the vehicle in which the compound was prepared and served as a control. The cells were grown in the presence of compounds for 6 days and were counted on day 0 and day 6. All cell counting was performed using a Synentec Cellavista plate imager. […] Growth inhibition was calculated as a ratio of cell population doublings in the presence of compound versus the absence of compound. […] IC50 values for each compound were calculated by fitting curves to data points from each dose-response assay using the Proc NLIN function in SAS for Windows version 9.2 (SAS Institute, Inc.).
(§3) Designation of Sensitivity and Resistant Cohorts and Calculation of Average IC50 Values
(§4) Human cancer cell lines were grouped as “sensitive” or “resistant” to ERK1 inhibition based on whether their growth was retarded by KO-947 (i.e., 1,5,6,8-tetrahydro-6-(phenylmethyl)-3-(4-pyridinyl)-7H-pyrazolo[4,3-g]quinazolin-7-one) and SCH772984 (i.e., (3R)-1-[2-oxo-2-[4-[4-(2-pyrimidinyl)phenyl]-1-piperazinyl]ethyl]-N-[3-(4-pyridinyl)-1H-indazol-5-yl]-3-pyrrolidinecarboxamide) (data not shown; see Table 4). These sensitive and resistant cohorts were interrogated for response to each compound, and IC50s were calculated for each cell line using the same technique described above. Average IC50s for the sensitive and resistant cohorts were calculated as geometric means of the group.

ERK2 = ERK2 (Homo sapiens, UniProt P28482); test: ERK1 and 2 Enzymatic Inhibition Assay (ERK2); format: biochemical; conditions: 10 assay concentrations 2×10^−6 M to 6×10^−11 M, 1% DMSO
Sequence of ERK2 (P28482 whole entry): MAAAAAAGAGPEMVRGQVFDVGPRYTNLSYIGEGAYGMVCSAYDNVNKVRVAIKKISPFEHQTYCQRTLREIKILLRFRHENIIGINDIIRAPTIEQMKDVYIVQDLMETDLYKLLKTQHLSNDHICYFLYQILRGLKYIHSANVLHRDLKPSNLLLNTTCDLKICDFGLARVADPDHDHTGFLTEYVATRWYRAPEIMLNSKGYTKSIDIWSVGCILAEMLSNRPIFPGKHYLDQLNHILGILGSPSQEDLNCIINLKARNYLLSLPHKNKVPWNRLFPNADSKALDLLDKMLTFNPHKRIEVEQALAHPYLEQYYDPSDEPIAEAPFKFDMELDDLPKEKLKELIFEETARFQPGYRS
Protocol: (§5) ERK1 and 2 Enzymatic Inhibition Assay
(§6) For the Ki determination assay, 200 μM stock solutions of compounds were subjected to a serial, semi-logarithmic dilution using 100% DMSO as a solvent. 10 distinct concentrations were prepared, with a dilution endpoint of 6×10^−9 M in 100% DMSO. 100% DMSO was used as a control. 10 μL from each of the serial dilutions were aliquoted into separate wells of a 96-well plate and 90 μL of water were added to each of those wells. The plate was shaken thoroughly, and 5 μL from each of the plate's wells were transferred into wells of the assay plate. The final volume of wells in the assay plate was 50 μL. All compounds were tested at 10 assay concentrations in the range from 2×10^−6 M to 6×10^−11 M. The final DMSO concentration in the wells of the assay plate was 1% in all cases.

ERK1 = ERK1 (Homo sapiens, UniProt P27361); test: ERK1 and 2 Enzymatic Inhibition Assay (ERK1); format: biochemical; conditions: 10 assay concentrations 2×10^−6 M to 6×10^−11 M, 1% DMSO
Sequence of ERK1 (P27361 whole entry): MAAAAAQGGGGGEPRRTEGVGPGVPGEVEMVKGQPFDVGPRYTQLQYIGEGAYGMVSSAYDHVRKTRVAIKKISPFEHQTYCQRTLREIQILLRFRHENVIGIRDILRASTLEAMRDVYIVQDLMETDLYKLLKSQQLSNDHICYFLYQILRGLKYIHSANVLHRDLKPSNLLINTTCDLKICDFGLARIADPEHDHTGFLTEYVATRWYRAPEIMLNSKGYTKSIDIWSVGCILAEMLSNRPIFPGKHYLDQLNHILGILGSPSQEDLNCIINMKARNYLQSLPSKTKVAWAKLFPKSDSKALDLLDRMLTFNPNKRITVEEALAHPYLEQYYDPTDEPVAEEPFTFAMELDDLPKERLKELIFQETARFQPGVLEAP
Protocol: as §5, §6

[2] = tested on: drug-resistant cell lines of Table 4; test: Cell line growth retardation assay, average over resistant cohort; format: cell-based, Human; conditions: Homo sapiens, 144 h; geometric mean of IC50s over resistant cohort (Table 4); 6 days growth; read-out: AvgRes IC50
Protocol: as §1, §2, §3, §4

| Structure (SMILES) | IC50 [1] [nM] | Kd (ERK2) [nM] | Kd (ERK1) [nM] | IC50 [2] [nM] |
| --- | --- | --- | --- | --- |
| O=C(NC(c1ccccc1)C1CC1)c1ncc(-c2c[nH]c3ncc(N4CCOCC4)cc23)cn1 (centres unmarked) [Compound 49, N-(cyclopropyl(phenyl)methyl)-5-(5-morpholino-1H-pyrrolo[2,3-b]pyridin-3-yl)pyrimidine-2-carboxamide] | 251 to 500 | ≤ 10 | ≤ 10 | > 500 |
| CC(NC(=O)c1ncc(-c2c[nH]c3ncc(N4CC5(COC5)C4)cc23)cn1)c1ccccc1 (stereo in doubt) [Compound 42, (R)-5-(5-(2-oxa-6-azaspiro[3.3]heptan-6-yl)-1H-pyrrolo[2,3-b]pyridin-3-yl)-N-(1-phenylethyl)pyrimidine-2-carboxamide] | > 500 | ≤ 10 | ≤ 10 | > 500 |
| O=C(NCCc1ccccc1)c1ccc(-c2c[nH]c3ncc(N4CCOCC4)cc23)nc1 [Compound 9, 6-(5-morpholino-1H-pyrrolo[2,3-b]pyridin-3-yl)-N-phenethylnicotinamide] | > 500 | > 100 | > 100 | > 500 |
| O=C(c1ncc(-c2c[nH]c3ncc(N4CCOCC4)cc23)cn1)N1CCC[C@@H]1c1ccccc1 [Compound 18, (R)-(5-(5-morpholino-1H-pyrrolo[2,3-b]pyridin-3-yl)pyrimidin-2-yl)(2-phenylpyrrolidin-1-yl)methanone] | > 500 | 11 to 100 | 11 to 100 | > 500 |
| O=C(NCCc1ccc(F)cc1)c1ncc(-c2c[nH]c3ncc(N4CCOCC4)cc23)cn1 [Compound 62, N-(4-fluorophenethyl)-5-(5-morpholino-1H-pyrrolo[2,3-b]pyridin-3-yl)pyrimidine-2-carboxamide] | > 500 | 11 to 100 | ≤ 10 | > 500 |
| c1ccc([C@H]2CN=C(c3ncc(-c4c[nH]c5ncc(N6CCOCC6)cc45)cn3)N2)cc1 [Compound 15, (S)-4-(3-(2-(5-phenyl-4,5-dihydro-1H-imidazol-2-yl)pyrimidin-5-yl)-1H-pyrrolo[2,3-b]pyridin-5-yl)morpholine] | > 500 | 11 to 100 | 11 to 100 | > 500 |
| CC(NC(=O)c1ncc(-c2c[nH]c3ncc(N4CCOC(C)(C)C4)cc23)cn1)c1ccccc1 (stereo in doubt) [Compound 38, (R)-5-(5-(2,2-dimethylmorpholino)-1H-pyrrolo[2,3-b]pyridin-3-yl)-N-(1-phenylethyl)pyrimidine-2-carboxamide] | > 500 | 11 to 100 | 11 to 100 | > 500 |
| COc1cc(-c2cnc3[nH]cc(-c4cnc(C(=O)NC(C)c5ccccc5)nc4)c3c2)ccn1 (stereo in doubt) [Compound 41, (R)-5-(5-(2-methoxypyridin-4-yl)-1H-pyrrolo[2,3-b]pyridin-3-yl)-N-(1-phenylethyl)pyrimidine-2-carboxamide] | ≤ 250 | ≤ 10 | ≤ 10 | > 500 |
| O=C(NCc1ccccc1)c1ncc(-c2c[nH]c3ncc(N4CCOCC4)cc23)cn1 [Compound 7, N-benzyl-5-(5-morpholino-1H-pyrrolo[2,3-b]pyridin-3-yl)pyrimidine-2-carboxamide] | > 500 | 11 to 100 | ≤ 10 | > 500 |
| O=C(NCCc1ccccc1Cl)c1ncc(-c2c[nH]c3ncc(N4CCOCC4)cc23)cn1 [Compound 61, N-(2-chlorophenethyl)-5-(5-morpholino-1H-pyrrolo[2,3-b]pyridin-3-yl)pyrimidine-2-carboxamide] | 251 to 500 | ≤ 10 | ≤ 10 | > 500 |
| C[C@@H](NC(=O)c1ncc(-c2c[nH]c3ncc(N4CCOCC4)cc23)cn1)c1cccc(C(F)(F)F)c1 [Compound 21, (R)-5-(5-morpholino-1H-pyrrolo[2,3-b]pyridin-3-yl)-N-(1-(3-(trifluoromethyl)phenyl)ethyl)pyrimidine-2-carboxamide] | 251 to 500 | 11 to 100 | ≤ 10 | > 500 |
